Test results taken from ChEMBL document CHEMBL1201862, “PubChem BioAssay data set” (2004).
Active and inactive are the calls of the source.

What was measured:
[1] = P. falciparum Dd2 growth inhibitors, dose response, SYBR Green, cherry-picked samples (AID 1159567); type: functional, cell-based
[2] = system: Streptococcus; assay: GAS UMAA2166 growth inhibition – luminescence, BacTiterGlo, counter-screen for streptokinase expression inhibitor project, dose response (AID 1915); type: functional, organism-based;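 note: potency for reduction of bacterial viability or growth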
[3] = microbe, parasite or virus in culture; type: functional; details: Mycobacterium tuberculosis
[4] = NIH3T3 cell viability loss – ATP luminescence, mouse fibroblasts, counter-screen, dose response (AID 2010); type: functional, cell-based;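 note: cells exposed to compound for about 90 hours before reading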
[5] = Trypanosoma cruzi growth suppression in host cells – NIH3T3 host cells, beta-gal luminescence, confirmation (AID 2044); type: functional, cell-based;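 note: intracellular parasites grown in NIH/3T3 mouse fibroblasts as host cells; luminescent beta-galactosidase reporter signal from transgenic T. cruzi replicating inside host cells; inhibitors lower the luminescence signal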
[6] = Luminescence Cell-Based Dose Retest to Confirm Inhibitors of Cancer Stem Cells. [Related pubchem assays (depositor defined):AID2717, AID2721]; type: functional; details: Homo sapiens
[7] = system: Streptococcus sp. 'group A'; assay: Streptococcus pyogenes SK(-)GAS viability under kanamycin – luminescence, BacTiterGlo, confirmation, counter-screen for streptokinase expression inhibitor project, dose response (AID 1900); type: functional, organism-based
[8] = molecular target: Heat shock protein HSP 90-alpha (Homo sapiens, UniProt P07900); type: functional, organism-based
[9] = molecular target: Cytochrome P450 2C9 (Homo sapiens, UniProt P11712)
Chain of Cytochrome P450 2C9 (P11712 whole entry): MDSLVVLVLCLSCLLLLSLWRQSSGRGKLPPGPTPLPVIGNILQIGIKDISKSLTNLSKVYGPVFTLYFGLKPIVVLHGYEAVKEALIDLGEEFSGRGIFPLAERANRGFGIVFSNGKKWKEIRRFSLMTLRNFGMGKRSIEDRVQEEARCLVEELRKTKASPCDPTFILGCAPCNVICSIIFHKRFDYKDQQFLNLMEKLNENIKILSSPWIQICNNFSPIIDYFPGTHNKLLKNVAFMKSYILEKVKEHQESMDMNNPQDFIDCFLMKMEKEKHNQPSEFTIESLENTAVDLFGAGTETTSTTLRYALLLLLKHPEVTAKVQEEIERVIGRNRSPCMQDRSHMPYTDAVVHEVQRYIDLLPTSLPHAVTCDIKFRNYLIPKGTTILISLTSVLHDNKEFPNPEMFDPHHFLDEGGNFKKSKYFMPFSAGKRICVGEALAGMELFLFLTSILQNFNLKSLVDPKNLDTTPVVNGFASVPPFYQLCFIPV

[10] = molecular target: T1, Ubiquitin-conjugating enzyme E2 N (Homo sapiens, UniProt P61088); type: functional;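 note: Dose-response confirmation in a TR-FRET assay detecting UBC13-driven polyubiquitin chain formation, inhibition measured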
T1 sequence (P61088 whole entry): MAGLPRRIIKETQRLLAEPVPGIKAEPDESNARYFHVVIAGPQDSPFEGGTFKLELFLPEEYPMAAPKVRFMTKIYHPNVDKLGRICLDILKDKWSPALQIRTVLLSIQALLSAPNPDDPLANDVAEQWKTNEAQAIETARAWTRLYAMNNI

[11] = molecular target: Glucose-6-phosphate 1-dehydrogenase (Homo sapiens, UniProt P11413); assay: inhibition of Homo sapiens G6PD, dose series – biochemical, fluorescence, selectivity assay for P. falciparum G6PD inhibitor project, dose response (AID 504792); type: functional
Chain of Glucose-6-phosphate 1-dehydrogenase (P11413 whole entry, the tested form may be a part): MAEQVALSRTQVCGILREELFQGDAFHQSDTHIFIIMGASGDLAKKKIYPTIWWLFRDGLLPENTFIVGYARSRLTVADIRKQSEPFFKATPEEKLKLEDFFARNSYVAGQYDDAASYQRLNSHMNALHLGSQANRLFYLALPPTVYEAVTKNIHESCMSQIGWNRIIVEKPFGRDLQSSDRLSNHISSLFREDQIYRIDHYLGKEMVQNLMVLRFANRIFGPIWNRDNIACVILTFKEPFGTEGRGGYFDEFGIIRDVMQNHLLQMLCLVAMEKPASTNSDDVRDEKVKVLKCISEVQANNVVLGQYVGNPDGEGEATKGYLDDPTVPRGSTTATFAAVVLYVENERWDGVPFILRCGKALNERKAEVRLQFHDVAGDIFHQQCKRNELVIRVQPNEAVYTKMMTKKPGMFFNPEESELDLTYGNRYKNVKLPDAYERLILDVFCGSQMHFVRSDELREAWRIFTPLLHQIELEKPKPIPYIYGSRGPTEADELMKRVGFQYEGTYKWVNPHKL

[12] = molecular target: T2, Polyadenylate-binding protein 1 (Homo sapiens, UniProt P11940); assay: MLLE domain peptide-binding blockers, IC50 – biochemical, fluorescence polarization, FITC-PAM2 peptide, dose response (AID 602259); type: functional; details: read-out: IC50_Mean
T2 sequence (P11940 whole entry, the tested form may be a part): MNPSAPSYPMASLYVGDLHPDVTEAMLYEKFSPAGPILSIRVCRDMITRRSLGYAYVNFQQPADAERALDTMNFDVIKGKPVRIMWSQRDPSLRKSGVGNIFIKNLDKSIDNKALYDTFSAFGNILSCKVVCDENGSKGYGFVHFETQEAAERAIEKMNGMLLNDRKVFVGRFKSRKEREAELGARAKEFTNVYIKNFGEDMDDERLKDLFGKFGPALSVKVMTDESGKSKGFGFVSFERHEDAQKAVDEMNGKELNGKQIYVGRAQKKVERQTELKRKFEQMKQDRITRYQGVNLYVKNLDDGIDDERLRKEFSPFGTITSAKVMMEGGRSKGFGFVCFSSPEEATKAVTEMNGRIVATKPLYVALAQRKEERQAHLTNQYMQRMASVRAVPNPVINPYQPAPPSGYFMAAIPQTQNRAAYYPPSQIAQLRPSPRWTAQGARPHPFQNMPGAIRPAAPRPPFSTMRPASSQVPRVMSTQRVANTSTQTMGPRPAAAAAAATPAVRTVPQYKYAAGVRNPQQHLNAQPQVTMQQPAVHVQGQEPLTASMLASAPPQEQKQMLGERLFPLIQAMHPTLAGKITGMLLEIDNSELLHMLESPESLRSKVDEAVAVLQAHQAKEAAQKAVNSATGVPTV

[13] = molecular target: T2, Polyadenylate-binding protein 1; assay: MLLE binding blockers, Cy5 peptide tracer – biochemical, fluorescence polarization, Cy5-PAM2 peptide, secondary, miRNA deadenylation inhibitor project, dose response (AID 602260); type: functional; details: read-out: IC50_Mean
[14] = molecular target: T3, Carboxy-terminal domain RNA polymerase II polypeptide A small phosphatase 1 (Homo sapiens, UniProt Q9GZU7); assay: CTDSP1 inhibitors, concentration-response, biochemical, absorbance readout, ultra-high-throughput screen actives (AID 540297); type: functional
T3 sequence (Q9GZU7 whole entry): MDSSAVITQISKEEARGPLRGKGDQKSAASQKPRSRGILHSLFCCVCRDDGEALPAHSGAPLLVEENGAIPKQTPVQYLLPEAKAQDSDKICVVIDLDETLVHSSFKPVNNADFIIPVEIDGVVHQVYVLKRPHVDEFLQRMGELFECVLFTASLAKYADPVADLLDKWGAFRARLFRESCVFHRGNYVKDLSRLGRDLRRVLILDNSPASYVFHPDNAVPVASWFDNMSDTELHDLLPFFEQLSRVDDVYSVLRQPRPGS

[15] = viability of PTEN-deleted HCT116 cells – cell-based, HCT116 PTEN knockout, dose response (AID 1047); type: functional;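 note: HCT116 colon tumor cells with PTEN knocked out; cells exposed to compound for 60 hours before readout; potency for loss of cell viability measured by luminescence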
[16] = viability of HCT116 lacking mutant beta-catenin – cell-based, human colon tumor, dose response (AID 1045); type: functional;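 note: HCT116 colon tumor cells with beta catenin knocked out; cells exposed to compound for 60 hours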
[17] = system: INS1; assay: INS-1E survival protection against cytokine death – cell-based, luminescence, retest, dose response (AID 449756); type: functional; details: Rattus norvegicus;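 note: cell death triggered by IL-1 beta plus TNF-alpha plus IFN-gamma mixture; protective hits raise ATP signal compared with cytokine alone wells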
[18] = system: H9c2; assay: cells; type: functional, cell-based; details: Rattus norvegicus, H9c2, Myocardium;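 note: confirmatory concentration-response retest of ultra-high-throughput screening hits for modulation of myocardial damage; cell death induced by hydrogen peroxide oxidative stress; compound pretreatment for 60 min then peroxide exposure for 2 h; potency is for protecting the cells against peroxide damage rather than for killing them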
[19] = molecular target: T4, Cytochrome P450 1A2 (Homo sapiens, UniProt P05177);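 note: PubChem cytochrome P450 panel assay, CYP1A2 panel member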
T4 sequence (P05177 whole entry): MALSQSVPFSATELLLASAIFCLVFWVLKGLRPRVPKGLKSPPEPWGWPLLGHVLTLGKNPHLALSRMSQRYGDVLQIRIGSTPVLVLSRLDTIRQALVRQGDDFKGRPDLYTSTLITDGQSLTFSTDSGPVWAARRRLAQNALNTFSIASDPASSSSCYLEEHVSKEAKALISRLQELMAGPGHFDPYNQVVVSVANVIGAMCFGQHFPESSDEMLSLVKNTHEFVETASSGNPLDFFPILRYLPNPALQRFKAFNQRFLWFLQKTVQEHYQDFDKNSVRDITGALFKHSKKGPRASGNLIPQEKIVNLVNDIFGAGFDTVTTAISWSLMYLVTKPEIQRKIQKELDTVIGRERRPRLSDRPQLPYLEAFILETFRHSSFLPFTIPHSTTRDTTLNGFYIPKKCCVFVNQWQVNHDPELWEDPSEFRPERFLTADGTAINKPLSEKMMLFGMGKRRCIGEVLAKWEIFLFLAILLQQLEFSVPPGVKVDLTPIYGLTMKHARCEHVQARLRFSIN

In the case of `N#C[C@@H]1[C@H](c2ccccc2-c2ccc(F)cc2)[C@H](CO)N1C(=O)NC1CCCC1`, the AC50 [1] is reported as 5.12 µM (active).
With `CC(=O)c1ccc(N2CCC(c3cc(-c4ccc(Cl)cc4Cl)[nH]n3)CC2)c([N+](=O)[O-])c1` the EC50 [2] was 8.12 µM (active), the CC50 [3] was 29.2 µM (active) and the EC50 [4] was > 60 µM (inconclusive). The EC50 [5] was 1.24 µM (active), the AC50 [6] was 2.19 µM (active) and the EC50 [7] was 4.36 µM (active).
With `Cc1ccc(Nc2nc(N)c([N+](=O)[O-])c(N3CCCC(C)C3)n2)cc1C` (stereo unspecified) the CC50 [3] was 40 µM (active) and the AC50 [8] was 8.91 µM (active).
For `C[C@@H]1O[C@H]1P(=O)([O-])[O-].[Na+].[Na+]`, the AC50 [9] was “inconclusive”.
With `CCOc1ccc(Cl)cc1/C=N/NC(N)=O` the IC50 [10] was > 20 µM (inactive) and the IC50 [11] was > 80 µM (inactive).
In the case of `O=[N+]([O-])c1cccc(C(=S)N2CCN(c3ccccc3)CC2)c1`, the IC50 [12] is reported as > 66 µM (inactive) and the IC50 [13] is reported as > 66 µM (inactive).
In the case of `C=CCn1cc(/C=N\NC(=O)c2cc3c(ccc4ccccc43)o2)c2ccccc21`, the AC50 [9] is reported as “inconclusive”.
In the case of `O=C(O)c1cccc(-n2cccc2/C=C2/NC(=O)N(c3cccc(Cl)c3)C2=O)c1`, the IC50 [14] is reported as 9.53 µM (active).
In the case of `CCN(CC)c1nc(N)nc(NS(=O)(=O)c2ccc(Cl)cc2)n1`, the IC50 [11] is reported as > 80 µM (inactive).
For `O=[N+]([O-])c1ccc2c(c1)-c1ccccc1C2O` (stereo unspecified), the IC50 [11] was > 80 µM (inactive).
With `COc1ccc(Cl)cc1Nc1nc(-c2sc(NC(=O)c3ccccc3)nc2C)cs1` the EC50 [15] was 7.12 µM (active) and the EC50 [16] was 10.3 µM (active).
With `CCN1C/C(=C/c2cccc([N+](=O)[O-])c2)C(=O)/C(=C/c2cccc([N+](=O)[O-])c2)C1` the EC50 [15] was 0.085 µM (active), the AC50 [17] was 2.24 µM (active) and the EC50 [16] was 0.062 µM (active). The AC50 [8] was 4.21 µM (active).
For `CCOc1ccc2c(c1)-c1c(ssc1=S)C(C)(C)N2C(=O)CSC1=NCCS1`, the IC50 [12] was > 66 µM (inactive) and the IC50 [13] was > 66 µM (inactive).
For `Cn1c(N=C(S)Nc2ccccc2)nc2ccccc21`, the CC50 [3] was > 40 µM (active).
In the case of `COc1ccc(C(=S)Nc2ccc(C)cc2)cc1`, the IC50 [12] is reported as > 66 µM (inactive) and the IC50 [13] is reported as > 66 µM (inactive).
In the case of `NC(=S)N=Nc1c(O)[nH]c2ccc(F)cc12`, the IC50 [12] is reported as > 66 µM (inactive) and the IC50 [13] is reported as > 66 µM (inactive).
For `c1ccc(-c2cn3c(n2)CCc2ccc4cccnc4c2-3)cc1`, the IC50 [18] was > 79 µM (inactive), the CC50 [3] was 22.1 µM (active) and the IC50 [11] was > 80 µM (inactive).
With `O=C1C(O)=C(C2CCC(c3ccc(Cl)cc3)CC2)C(=O)c2ccccc21` (stereo unspecified) the CC50 [3] was 12.8 µM (active) and the AC50 [19] was 10 µM (inconclusive).
